Test results as given in US20030201224A1, “Microbial consortium for the biodegradation of dithiocarbamates” (priority 2002, published 2003).
Where two headings read alike, the source gives them in different places.

Key:
[1] = system: consortium; assay: Degradation of other N-alkyl dithiocarbamates by the consortium (1000 ml bioreactor); settings: pH 7.2, 20-27° C.
Protocol: A 1000 ml bioreactor containing the synthetic medium (described above) has been inoculated with the consortium density of approximately 1.1×10^7 ml. The initial pH value was 7.2 and the temperature varied between 20-27° C. Dithiocarbamate concentration was measured spectrophometrically by complexing with cupric acetate and measuring the absorbance at 430 nm.

[2] = system: microbial consortium; settings: soil
Protocol: One soil environment was inoculated with approximately 1.2×10^7 consortium members/g soil while the other remained uninoculated. Nitrogen and phosphorus was added to both systems. The initial soil pH was 6.8 and the temperature varied from 18° C. to 27° C. Water was added to maintain the dry weight at about 30%. Each soil system was mixed weekly to provide aeration.

[3] = system: consortium; settings: within 72 hour; waste wash-water about 1100 ppm SDM and dilution at 500 ppm, pH 7.8; 20% inoculum of 72 h consortium
Protocol: The sample, and a dilution of it at 500 ppm and pH 7.8, was inoculated with a 20% (VN) amount of a 72 h consortium. A control without inoculation was included.

With `CN(C)C(=S)[S-].[Na+]` [SDM, Sodium dimethyl dithiocarbamate] the “% degradation (percent loss over the abiotic Control)” value ([1]; time 0.5 h) was 8.1%, the “% degradation (percent loss over the abiotic Control)” value ([1]; time 1.5 h) was 9.5% and the “% degradation (percent loss over the abiotic Control)” value ([1]; time 4 h) was 12.3%. For the same molecule, the “% degradation (percent loss over the abiotic Control)” value ([1]; time 5 h) was 12.1%, the “% degradation (percent loss over the abiotic Control)” value ([1]; time 7 h) was 27.1% and the “% degradation (percent loss over the abiotic Control)” value ([1]; time 27 h) was 61.4%. For the same molecule, the “% degradation (percent loss over the abiotic Control)” value ([1]; time 51 h) was 77.8%, the “% degradation (percent loss over the abiotic Control)” value ([1]; time 73 h) was 88.7% and the “% degradation (percent loss over the abiotic Control)” value ([1]; time 96 h) was 97.5%. The “PERCENT degradation of SDM” value ([2]; 100 mg SDM per kg soil, 1 d) was 1.6%, the “PERCENT degradation of SDM” value ([2]; 100 mg SDM per kg soil, 3 d) was 18.3% and the “PERCENT degradation of SDM” value ([2]; 100 mg SDM per kg soil, 7 d) was 50.2%. For the same molecule, the “PERCENT degradation of SDM” value ([2]; 500 mg SDM per kg soil, 1 d) was 6.2%, the “PERCENT degradation of SDM” value ([2]; 500 mg SDM per kg soil, 3 d) was 22.6% and the “PERCENT degradation of SDM” value ([2]; 500 mg SDM per kg soil, 7 d) was 63%. The “PERCENT degradation of SDM” value ([2]; 1000 mg SDM per kg soil, 1 d) was 4.8%, the “PERCENT degradation of SDM” value ([2]; 1000 mg SDM per kg soil, 3 d) was 16.3% and the “PERCENT degradation of SDM” value ([2]; 1000 mg SDM per kg soil, 7 d) was 39.7%. For the same molecule, the “PERCENT degradation of SDM” value ([2]; 1000 mg SDM per kg soil, 10 d) was 48%, the “PERCENT degradation of SDM” value ([2]; 1000 mg SDM per kg soil, 14 d) was 72% and the “PERCENT degradation of SDM” value ([2]; 1000 mg SDM per kg soil, 20 d) was 76%. For the same molecule, the “PERCENT degradation of SDM” value ([2]; 2000 mg SDM per kg soil, 1 d) was 3.9%, the “PERCENT degradation of SDM” value ([2]; 2000 mg SDM per kg soil, 3 d) was 12.4% and the “PERCENT degradation of SDM” value ([2]; 2000 mg SDM per kg soil, 7 d) was 26.7%. For the same molecule, the “PERCENT degradation of SDM” value ([2]; 2000 mg SDM per kg soil, 10 d) was 32.1%, the “PERCENT degradation of SDM” value ([2]; 2000 mg SDM per kg soil, 14 d) was 47.6% and the “PERCENT degradation of SDM” value ([2]; 2000 mg SDM per kg soil, 20 d) was 54%. For the same molecule, the “PERCENT degradation of SDM” value ([2]; 2000 mg SDM per kg soil, 28 d) was 58%, the “PERCENT degradation of SDM” value ([2]; 5000 mg SDM per kg soil, 1 d) was 5.2% and the “PERCENT degradation of SDM” value ([2]; 5000 mg SDM per kg soil, 3 d) was 3.1%. The “PERCENT degradation of SDM” value ([2]; 5000 mg SDM per kg soil, 7 d) was 2.3%, the “PERCENT degradation of SDM” value ([2]; 5000 mg SDM per kg soil, 10 d) was 1.8% and the “PERCENT degradation of SDM” value ([2]; 5000 mg SDM per kg soil, 14 d) was 3.6%. The “PERCENT degradation of SDM” value ([2]; 5000 mg SDM per kg soil, 20 d) was 1.8%, the “PERCENT degradation of SDM” value ([2]; 5000 mg SDM per kg soil, 28 d) was 3.2% and the “SDM degraded by the consortium” value [3] was ~100%.
For `CCCN(CCC)C(=S)[S-].[Na+]` [DiPropyl Dithiocarbamate, Sodium Dipropyl dithiocarbamates], the “% degradation (percent loss over the abiotic Control)” value ([1]; time 0 h) was 3.99%, the “% degradation (percent loss over the abiotic Control)” value ([1]; time 0.5 h) was 3.87% and the “% degradation (percent loss over the abiotic Control)” value ([1]; time 1.5 h) was 4.21%. The “% degradation (percent loss over the abiotic Control)” value ([1]; time 4 h) was 3.56%, the “% degradation (percent loss over the abiotic Control)” value ([1]; time 5 h) was 3.49% and the “% degradation (percent loss over the abiotic Control)” value ([1]; time 7 h) was 4.37%. For the same molecule, the “% degradation (percent loss over the abiotic Control)” value ([1]; time 27 h) was 7.82%, the “% degradation (percent loss over the abiotic Control)” value ([1]; time 51 h) was 9.43% and the “% degradation (percent loss over the abiotic Control)” value ([1]; time 73 h) was 11.24%. The “% degradation (percent loss over the abiotic Control)” value ([1]; time 96 h) was 14.56%.
For `CCCCN(CCCC)C(=S)[S-].[Na+]` [Dibutyl Dithiocarbamate, Sodium Dibutyl dithiocarbamates], the “% degradation (percent loss over the abiotic Control)” value ([1]; time 0 h) was 4.44%, the “% degradation (percent loss over the abiotic Control)” value ([1]; time 0.5 h) was 4.70% and the “% degradation (percent loss over the abiotic Control)” value ([1]; time 1.5 h) was 4.10%. For the same molecule, the “% degradation (percent loss over the abiotic Control)” value ([1]; time 4 h) was 3.81%, the “% degradation (percent loss over the abiotic Control)” value ([1]; time 5 h) was 3.98% and the “% degradation (percent loss over the abiotic Control)” value ([1]; time 7 h) was 4.12%. The “% degradation (percent loss over the abiotic Control)” value ([1]; time 27 h) was 6.11%, the “% degradation (percent loss over the abiotic Control)” value ([1]; time 51 h) was 6.66% and the “% degradation (percent loss over the abiotic Control)” value ([1]; time 73 h) was 7.93%. The “% degradation (percent loss over the abiotic Control)” value ([1]; time 96 h) was 9.46%.
With `CCN(CC)C(=S)S` [Diethyl Dithiocarbamate, sodium diethyl dithiocarbamate] the “% degradation (percent loss over the abiotic Control)” value ([1]; time 0 h) was 3.28%, the “% degradation (percent loss over the abiotic Control)” value ([1]; time 0.5 h) was 2.80% and the “% degradation (percent loss over the abiotic Control)” value ([1]; time 1.5 h) was 8.78%. For the same molecule, the “% degradation (percent loss over the abiotic Control)” value ([1]; time 4 h) was 8.18%, the “% degradation (percent loss over the abiotic Control)” value ([1]; time 5 h) was 13.29% and the “% degradation (percent loss over the abiotic Control)” value ([1]; time 7 h) was 15.01%. The “% degradation (percent loss over the abiotic Control)” value ([1]; time 27 h) was 18.00%, the “% degradation (percent loss over the abiotic Control)” value ([1]; time 51 h) was 21.00% and the “% degradation (percent loss over the abiotic Control)” value ([1]; time 73 h) was 23.00%. The “% degradation (percent loss over the abiotic Control)” value ([1]; time 96 h) was 25.07%.
